# Results from patent US20250281497A1, “FUSED AMINO PYRIMIDINE COMPOUNDS FOR TREATMENT OF SEIZURE DISORDERS” (Ovid Therapeutics Inc., priority 2024, published 2025).
# Several values for one entry are separate records, joined by “and”; a condition that tells them apart may be missing. Equal values may be shown once.
# Experiments:
# KCC2 [1] = target: T1, KCC2 (Homo sapiens, UniProt Q9H2X9); experiment: Cellular thermal shift assay (CETSA) in transfected HEK-293 cells; format: binding; details: 30 μM, 90 min, heated 37-58° C.
# T1 construct: expressed in transfected cells; host or cells: HEK-293 (ATCC CRL-1573)
# T1 sequence (Q9H2X9 1-1116 isoform Q9H2X9-2): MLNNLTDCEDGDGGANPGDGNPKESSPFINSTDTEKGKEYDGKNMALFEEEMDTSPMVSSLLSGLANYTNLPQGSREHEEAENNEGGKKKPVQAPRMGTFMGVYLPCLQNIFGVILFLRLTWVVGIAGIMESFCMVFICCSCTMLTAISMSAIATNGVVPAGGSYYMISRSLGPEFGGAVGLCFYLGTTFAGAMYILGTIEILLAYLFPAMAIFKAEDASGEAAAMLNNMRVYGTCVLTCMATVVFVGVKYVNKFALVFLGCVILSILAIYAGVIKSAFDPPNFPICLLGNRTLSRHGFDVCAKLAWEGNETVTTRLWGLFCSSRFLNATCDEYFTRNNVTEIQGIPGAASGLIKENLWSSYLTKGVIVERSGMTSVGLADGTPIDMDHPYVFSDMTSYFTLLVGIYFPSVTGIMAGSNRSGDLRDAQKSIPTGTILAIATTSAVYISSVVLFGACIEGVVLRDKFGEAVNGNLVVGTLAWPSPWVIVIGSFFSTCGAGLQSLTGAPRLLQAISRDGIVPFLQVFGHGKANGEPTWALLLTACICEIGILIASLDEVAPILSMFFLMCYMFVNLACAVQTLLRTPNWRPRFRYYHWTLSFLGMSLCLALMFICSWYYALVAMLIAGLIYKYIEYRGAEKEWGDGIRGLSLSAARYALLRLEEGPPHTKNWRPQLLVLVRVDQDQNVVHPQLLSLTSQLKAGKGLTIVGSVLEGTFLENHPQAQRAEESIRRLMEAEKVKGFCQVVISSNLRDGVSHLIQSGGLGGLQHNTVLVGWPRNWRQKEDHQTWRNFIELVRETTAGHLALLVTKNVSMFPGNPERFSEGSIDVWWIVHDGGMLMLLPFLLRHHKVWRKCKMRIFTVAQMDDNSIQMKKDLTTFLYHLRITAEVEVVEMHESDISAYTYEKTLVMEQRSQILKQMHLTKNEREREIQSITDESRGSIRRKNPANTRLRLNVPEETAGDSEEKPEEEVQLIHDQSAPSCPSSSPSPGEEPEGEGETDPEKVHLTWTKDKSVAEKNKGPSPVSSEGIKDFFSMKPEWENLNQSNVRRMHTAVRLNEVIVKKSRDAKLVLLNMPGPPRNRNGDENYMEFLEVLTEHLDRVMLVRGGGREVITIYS
# Method: Determining if compounds in SSA directly interact with KCC2. This was tested using a cellular thermal shift assay (CETSA), which measures the ability of a drug to modify the thermal stability of its target in whole cells (Kawatkar et al., ACS Chem. Biol. 14, 1913-1920 (2019); Martinez et al., Sci Rep 8, 9472 (2018)).
# 2×10^6 transfected HEK-293 cells were incubated with 30 μM drug or vehicle for 90 min at 37° C. and then heated from 37-58° C. for 5 min. Cells were rapidly chilled to 25° C. and NP40 was added to a final concentration […] to snap freezing in liquid nitrogen. Following 5 freeze/thaw cycles lysates were centrifuged at 12,000×g to remove denatured proteins and associated cell debris.
# Aliquots of HEK-293 cells expressing KCC2 were exposed to 30 μM SSA, heated from 37-55° C. The remaining level of soluble native KCC2 at each temperature was measured by immunoblotting and normalized to the level seen at 37° C. which was given a value of 1. […] This panel included protein kinase C isoforms, OSR1, SPAK (STK39) and with-no-lysine kinases (WNK), all of which phosphorylate KCC2 on multiple residues to indirectly modify its activity (Kahle et al., 2013, supra; Smalley et al., 2020, supra).
# KCC2 [2] = target: T1, KCC2; experiment: FLIPR Tl+ flux assay, HEK-293 cells expressing KCC2; format: cell-based
# Method: A multi-tiered high-throughput screening assay was used, leveraging a proprietary library of 1.3 million small molecule compounds from AstraZeneca (Cambridge, UK) to identify chemical entities capable of activating KCC2. A single point concentration of 30 μM was used to identify potassium flux using an established thallium […] influx FLIPR assay as the primary read out in HEK-293 cells overexpressing KCC2 (Cardarelli et al., Nat. Med. 23, 1394-1396 (2017); Conway et al., J Biol Chem 292, 21253-21263 (2017); Lee et at, 2022, supra).
# Cell Culture and biotinylation. […]
# FLIPR TI Flux assay. HEK-293 cells were washed with HBSS, and then incubated with loading buffer containing TI sensitive fluorescent dye (https://www.moleculardevices.com), 20 μM bumetanide 20 μM ouabain and 2.5 mM probenecid for 1 h at room temperature (RT) under control conditions or with drugs in the dark using a FlexStation 3 microplate reader (Molecular Devices) and imaged […] for 30 min. Stimulus buffer was added containing 5 mM K^+/0.5 mM Tl^+ and cells were imaged every 1.5 over a 190 second time course The initial rate Tl^+ uptake (Relative Fluorescence Units (RFU) per second) was determined following addition of the stimulus buffer as outlined previously (Conway et at, 2017, supra) (Lee et at, 2022, supra). […]
smiles,measurement,setting,value
"C[C@@H]1CN(c2nc3c(c(Nc4ccc(C5CCCCC5)cc4)n2)COC3)CCO1 [Compound A, (R)—N-(4-cyclohexylphenyl)-2-(2-methylmorpholino)-5,7-dihydrofuro[3,4-d]pyrimidin-4-amine]",thermal stability of KCC2 / direct binding (CETSA),KCC2 [1],capable of directly binding to KCC2
same,EC50,"KCC2 [2]; HEK-293 cells expressing KCC2, 1% β-cyclodextrin vehicle, read-out: EC50 for KCC2 as measured by Tl+ flux",260 nM and 261 nM
same,maximum potentiation of KCC2,"KCC2 [2]; saturating concentration of 3 μM, 1% BCD vehicle",90%
